These results are taken from paper PMC8615155 (Antioxidants, 2021).

Series [1] addresses T1, cellular TrxR in HeLa cells (Homo sapiens, UniProt Q16881).
T1 construct: endogenous in cells; host or cells: HeLa
T1 sequence (Q16881 1-499 isoform Q16881-5): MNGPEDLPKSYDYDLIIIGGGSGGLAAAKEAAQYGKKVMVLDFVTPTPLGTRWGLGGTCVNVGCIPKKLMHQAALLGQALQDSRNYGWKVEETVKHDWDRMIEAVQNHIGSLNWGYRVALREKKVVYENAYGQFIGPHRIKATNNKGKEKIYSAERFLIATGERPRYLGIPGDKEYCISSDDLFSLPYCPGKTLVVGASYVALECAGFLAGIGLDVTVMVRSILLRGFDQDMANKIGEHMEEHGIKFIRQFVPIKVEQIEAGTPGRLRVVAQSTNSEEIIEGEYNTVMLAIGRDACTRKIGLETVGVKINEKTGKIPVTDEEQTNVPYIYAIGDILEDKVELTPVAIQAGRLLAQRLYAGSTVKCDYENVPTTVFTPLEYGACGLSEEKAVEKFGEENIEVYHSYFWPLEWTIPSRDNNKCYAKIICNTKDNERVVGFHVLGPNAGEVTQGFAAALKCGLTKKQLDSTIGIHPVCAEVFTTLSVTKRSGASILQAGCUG
Description: Cellular TrxR activity, end-point Trx-coupled insulin assay. The series is classed as cell-based. The note with it: HeLa cells vs untreated controls. As to the method: The cells were then collected and washed twice with ice-cold PBS. The total cell proteins were extracted with the RIPA buffer on ice for 30 min. The TrxR activities in the cell lysates were measured by the end-point Trx-coupled insulin assay and the protein concentration was determined by BCA protein assay kit (Sangon, Shanghai, China), using bovine serum albumin (BSA) as protein standard.

Series [2] deals with SH-SY5Y cells. Nature of the series: MTT cell viability SH-SY5Y. It is filed as cell-based, Human. The note with it: 48 h, read-out: IC50 values on cancer cell lines. On the procedure: (§1) Human HeLa, A549, HepG2, SH-SY5Y, MCF7 and AGS cells were cultured in DMEM containing 10% FBS, respectively. HCT116 cells were cultured in McCoy’s 5A medium (Procell, Wuhan, China) containing 10% FBS. The cells were cultured in medium containing 100 IU/mL penicillin, 100 µg/mL streptomycin (1% antibiotics) and 25 nM selenite at 37 °C in a humidified incubator with 5% CO2 (Thermo Fisher Scientific, Waltham, MA, USA).
(§2) MTT assay was used to detect cell viability. In brief, cells were seeded in 96-well plates with 5000 cells per well and allowed to stick overnight. […] After treatment, the cell medium was carefully removed from the cultured cells and added with 100 µL fresh FBS-free medium containing 0.5 mg/mL MTT. The medium was incubated in an incubator for 4 h. Then, the medium was removed, and the formazan crystals formed were dissolved in 100 µL DMSO. The absorbance was measured at 570 nm, and 630 nm was set as the reference. The experiments were repeated four times.

Series [3] relates to HCT116 cells. Description: MTT cell viability HCT116. The series is classed as cell-based, Human. The note with it: for IC50: read-out: IC50 values on cancer cell lines. As to the method:
as §1, §2

The subject of series [4] is MCF7 cells. Nature of the series: MTT cell viability MCF7. It is filed as cell-based, Human. The note with it: read-out: IC50 values on cancer cell lines. On the procedure:
as §1, §2

In series [5] the test system is HeLa cells. Nature of the series: MTT cell viability HeLa. The series is classed as cell-based, Human. The note with it: read-out: IC50 values on cancer cell lines. As to the method: as §1, §2
Series [6] has as its system HepG2 cells. Nature of the series: MTT cell viability HepG2. The series is classed as cell-based, Human. The conditions noted are these: read-out: IC50 values on cancer cell lines. On the procedure: as §1, §2
The test system of series [7] is AGS cells. Nature of the series: MTT cell viability AGS. The series is classed as cell-based, Human. As to the method:
as §1, §2

Series [8] concerns HeLa cells. Description: ROS generation with DCFH-DA. The note with it: 12 h, up to 50 µM. It is filed as cell-based, Human. On the procedure: After removing the medium, 10 µM DCFH-DA was added and incubated at 37 °C in darkness for 30 min. The cells were then observed and photographed using a Leica inverted fluorescence microscopy (Leica, Germany).
The test system of series [9] is A549 cells. Description: MTT cell viability A549. The series is classed as cell-based, Human. The note with it: read-out: IC50 values on cancer cell lines. As to the method:
as §1, §2

The target in series [10] is T2, wild type TrxR1 (Rattus norvegicus, UniProt O89049).
T2 sequence (O89049 1-499): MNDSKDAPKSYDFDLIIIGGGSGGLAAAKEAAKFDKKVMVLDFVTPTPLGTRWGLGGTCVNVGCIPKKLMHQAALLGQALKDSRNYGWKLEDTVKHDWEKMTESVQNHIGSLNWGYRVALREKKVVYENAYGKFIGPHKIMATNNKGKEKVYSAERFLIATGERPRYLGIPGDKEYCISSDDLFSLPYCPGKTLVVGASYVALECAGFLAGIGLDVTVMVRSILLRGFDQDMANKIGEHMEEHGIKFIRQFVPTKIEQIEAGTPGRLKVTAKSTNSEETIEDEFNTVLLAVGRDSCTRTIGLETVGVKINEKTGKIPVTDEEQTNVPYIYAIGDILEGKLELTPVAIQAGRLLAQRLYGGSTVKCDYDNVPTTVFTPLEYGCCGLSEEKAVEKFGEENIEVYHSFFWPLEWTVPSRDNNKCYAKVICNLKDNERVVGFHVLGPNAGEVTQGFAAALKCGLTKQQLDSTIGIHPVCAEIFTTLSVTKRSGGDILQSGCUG
Nature of the series: TrxR1 DTNB reduction assay.
Description: (§3) All food colorants were dissolved in DMSO to prepare a stock solution. […] 5,5′-dithiobis-2-nitrobenzoic acid (DTNB), 3-(4,5)-dimethylthiahiazo (-z-y1)-3,5-di-phenytetrazoliumromide (MTT) and ROS probe DCFH-DA were purchased from Sigma-Aldrich (St Louis, MI, USA). A 50 mM Tris-HCl containing 2 mM EDTA (pH 7.5) was used in all protein-based experiments, if not stated otherwise.
(§4) The enzymatic activities of TrxR1 and its various mutants were determined in parallel with DTNB and 9,10-panathrenequinone (9,10 PQ) as substrates [17]. In DTNB reduction assay, the working reaction mixtures contained 10 nM TrxR1, 2.5 mM DTNB and 300 µM NADPH in 50 mM Tris-HCl and 2 mM EDTA, pH 7.5. […] In the 9,10 PQ reduction assay, the working reaction mixtures contained 30 nM TrxR1, 30 µM 9,10 PQ and 200 µM NADPH, followed by NADPH oxidation at 340 nm for 20 min at room temperature, according to the linear region of the decrease curves (assuming ƐNADPH, 340 nm = 6200 M^−1 cm^−1).

Series [11] addresses T3, TrxR1 (Rattus norvegicus, UniProt O89049).
T3 sequence (O89049 1-499): T2 sequence (O89049 1-499)
Description: NADPH oxidase activity of TrxR1 (juglone reduction). The series is classed as biochemical. The conditions noted are these: 500 µM, 30 min in dark, juglone as substrate. On the procedure:
NADPH oxidase activity of TrxR1 was measured by juglone reduction method. The final reaction mixture consisted of 30 nM TrxR1, 30 µM juglone (in DMSO) and 200 µM NADPH.

Series [12] concerns the target T2, wild type TrxR1.
Description: as §3, §4
Series [13] concerns TrxR1. More on the design: method as in PMID 21262347. The conditions noted are these: cited from earlier work.

As usually defined, the IC50 is the concentration that gives 50% inhibition.

Where two headings read alike, the source gives them in different places.

For the compound “Sodium copper chlorophyll [chlorophyllin]”, the “Inhibition of cellular TrxR1 activity” value in series [1] is reported as “remarkable inhibition”. Besides, the half-inhibitory concentration (IC50) came out at 31.7 ± 6.7 µM in series [2]; 43.5 ± 2.6 µM in [3] (HCT116, 24 h); 20.2 ± 0.8 µM in series [3] (HCT116, 48 h); 30.1 ± 7.1 µM in series [4] (MCF7, 24 h); 6.9 ± 1.1 µM in series [4] (MCF7, 48 h); 47.9 ± 13.5 µM in series [5] (24 h). In addition, the IC50 was 10.4 ± 4.3 µM in series [5] (48 h); 36.8 ± 11.2 µM in [6] (HepG2, 24 h); 10.2 ± 3 µM in [6] (HepG2, 48 h); 49.6 ± 24.7 µM in [7] (48 h, read-out: IC50 values on cancer cell lines); 40.7 ± 3.9 µM in series [9] (A549, 24 h); 10.3 ± 1.4 µM in series [9] (A549, 48 h). The “Fluorescent signals of ROS probe DCFH-DA” value in series [8] is given as “much higher”.
Turning to `CC(=O)OC[C@H]1O[C@@H]([S-])[C@H](OC(C)=O)[C@@H](OC(C)=O)[C@@H]1OC(C)=O.CCP(CC)CC.[Au+]` [auranofin, reference compound], the “Effect of pre-treatment on sensitivity of HCT116 cells to chlorophyllin” value in series [3] (auranofin 2.5 h pre-treatment, then chlorophyllin) is given as “increasing the sensitivity”.
Take `CC1=C[C@H](O)CC(C)(C)[C@H]1/C=C/C(C)=C/C=C/C(C)=C/C=C/C=C(C)/C=C/C=C(C)/C=C/C1=C(C)C[C@@H](O)CC1(C)C` [lutein]: 306 µM corresponded to half-maximal inhibition in series [10] (IC50). The “Inhibition of NADPH oxidation activity of TrxR1” value in series [11] is on record as “no inhibition”. Also, the “Time dependence of TrxR1 inhibition” value in [12] is recorded as “time-dependent manner”.
For the compound `C=CC1=C(C)c2cc3[nH]c(cc4nc(cc5[nH]c(cc1n2)c(C)c5CCC(=O)O)C(CCC(=O)O)=C4C)c(C)c3C=C` [PpIX], in [13], the “Kinact in TrxR1 mediated Trx-coupled insulin reduction” value was 0.0003 µM⁻¹ min⁻¹. For the same compound, in series [13] (read-out: apparent Ki on TrxR1's Trx reduction), the Ki was 2700 nM.
For `CC(=O)N[C@@H](CS)C(=O)O` [NAC, N-acetyl-L-cysteine, reference compound], the “Effect of co-treatment on chlorophyllin cytotoxicity” value in series [3] (HCT116, 100 µM or 500 µM NAC, 24 h co-treatment) was “protect cell from chlorophyllin”; in [7] (100 µM or 500 µM NAC, 24 h co-treatment), “protect cell from chlorophyllin”.
Consider hemin, for which the “Kinact in TrxR1 mediated Trx-coupled insulin reduction” value in [13] is 0.00026 µM⁻¹ min⁻¹.
